Measurements published in patent US6451254B1, “Sterilization of diffusion-restricted area by revaporizing the condensed vapor” (Ethicon, Inc., priority 1998, dated 2002).
Where two headings read alike, the source gives them in different places.

Assays:
[1] = test system: Bacillus stearothermophilus spores; conditions: 5 minutes vaporization, no revaporization
Source text: In Example 1, the following items were placed in a CSR-wrapped tray in a 173 L sterilization chamber: Open Petri dish 2.48 mm id×50 cm Teflon lumen 2.48 mm id×75 cm Teflon lumen 2.48 mm id×100 cm Teflon lumen 40 pieces of medical devices The Petri dish contained a biological challenge consisting of 2.2×10^6 Bacillus stearothermophilus spores on a stainless steel coupon. A coupon was also placed in the center of each of the three lumens. The coupon in the Petri dish was used as a test of the effectiveness of the method at sterilizing the exterior of a device, and the coupons in the lumens were a test of the effectiveness of sterilizing the interior of the lumens. Three experiments were performed in which 1, 2, and 3 g of 59 wt % hydrogen peroxide were introduced into the vaporizer after the chamber was evacuated to 0.4 torr and allowed to vaporize and diffuse into the chamber for 5 minutes.

[2] = test system: Bacillus stearothermophilus spores; conditions: 3 g of 59 wt % hydrogen peroxide, 5 Minutes Vaporization and 20 Minutes Diffusion
Source text: (§1) The Petri dish contained a biological challenge consisting of 2.2×10^6 Bacillus stearothermophilus spores on a stainless steel coupon. A coupon was also placed in the center of each of the three lumens. The coupon in the Petri dish was used as a test of the effectiveness of the method at sterilizing the exterior of a device, and the coupons in the lumens were a test of the effectiveness of sterilizing the interior of the lumens.
In Example 3, the pressure in the sterilization chamber was reduced to 0.4 torr, a total of 3 g of 59 wt % hydrogen peroxide was placed in the vaporizer, and the hydrogen peroxide was vaporized and diffused into the sterilization chamber for 5 minutes. The hydrogen peroxide was then allowed to diffuse at various pressures for 20 minutes. The pressure in the sterilization chamber was at constant pressure by controlling the pressure with an automatic valve between the sterilization chamber and the vacuum pump.
The experiment on the first line of Table 5 is the control experiment, in which the hydrogen peroxide was vaporized into the chamber and allowed to diffuse with the valve between the sterilization chamber and the vacuum pump closed. The pressure in the sterilization chamber was 9.5 torr, which is higher than the vapor pressure of 43 mole % hydrogen peroxide/water solution at 20° C., the approximate temperature of the equipment in the sterilization chamber, as shown in Table 2.
In the experiments described on the following lines of Table 5, the 3 grams of 59 wt % hydrogen peroxide was vaporized for 5 minutes.
The pressure in the sterilization chamber was then reduced, and the condensed vapor was vaporized and allowed to diffuse at constant pressure for 20 minutes. The interior of the sterilization chamber was maintained at a constant pressure by the automatic valve between the sterilization chamber and the vacuum pump. The constant pressure in the sterilization chamber ranged from 7 torr to 1 torr.
In the examples on the following lines, the same procedure was followed, vaporizing 3 g of 59 wt % hydrogen peroxide for 5 minutes and diffusing at constant pressure for 20 minutes. The constant diffusion pressure ranged from 1 to 6 torr.

[3] = test system: Bacillus stearothermophilus spores; conditions: 3 g of 57% hydrogen peroxide, 5 Minutes Vaporization
Source text: The Petri dish contained a biological challenge consisting of 2.2×10^6 Bacillus stearothermophilus spores on a stainless steel coupon. A coupon was also placed in the center of each of the three lumens. The coupon in the Petri dish was used as a test of the effectiveness of the method at sterilizing the exterior of a device, and the coupons in the lumens were a test of the effectiveness of sterilizing the interior of the lumens. In Example 5, the Petri dish and three lumens were placed in a tray with 40 medical devices in the sterilization chamber, the chamber was evacuated to 0.4 torr, 3 g of 57% hydrogen peroxide were vaporized into the chamber over 5 minutes, and the chamber was vented to 1 atmosphere. The hydrogen peroxide was then allowed to diffuse for a total of 20 minutes, either at 1 atmosphere pressure or 4 torr. In the first experiment in Table 7, the sterilization chamber was vented to atmosphere after the hydrogen peroxide was vaporized into the sterilization chamber, and the hydrogen peroxide vapor was allowed to diffuse at 1 atmosphere for 19.5 minutes. […] The first experiment was the control experiment for the second experiment. In the second experiment in Table 7, the sterilization chamber was vented to atmosphere for 0.5 minutes, then the pressure in the sterilization chamber was reduced to 4 torr and controlled at that pressure for a total of 19.5 minutes.

[4] = test system: Bacillus stearothermophilus spores; conditions: 3 g of 59 wt % hydrogen peroxide, 5 Minutes Vaporization and 20 Minutes Diffusion; remark: listed apart in the source
Method: as §1
In this example, the procedure of Example 3 was carried out, but the valve between the sterilization chamber and the vacuum pump was closed after the desired pressure was reached. In Example 3, constant pressure was maintained throughout the 20 minutes of diffusion.
The Petri dish and three lumens were placed in a tray in a 173 L sterilization chamber, and the chamber was evacuated to 0.4 torr. A total of 3 g of 59 wt % hydrogen peroxide was vaporized in the vaporizer and diffused into the sterilization chamber over a period of 5 minutes, and the pressure in the sterilization chamber was reduced to the desired value, and the valve between the sterilization chamber and the vacuum pump was closed. The hydrogen peroxide was then allowed to diffuse in the sterilization chamber for 20 minutes.

[5] = test system: Bacillus stearothermophilus spores
Source text: The Petri dish contained a biological challenge consisting of 2.2×10^6 Bacillus stearothermophilus spores on a stainless steel coupon. A coupon was also placed in the center of each of the three lumens. The coupon in the Petri dish was used as a test of the effectiveness of the method at sterilizing the exterior of a device, and the coupons in the lumens were a test of the effectiveness of sterilizing the interior of the lumens. In the following experiment, the condensed hydrogen peroxide was revaporized multiple times. The following procedure was followed in the experiment. A tray containing the Petri dish and three lumens with inoculated blades was placed in a 173 L sterilization chamber, as in the other examples, and the chamber was evacuated to 0.4 torr. The experiment with multiple revaporizations was conducted as follows: 1. 3 grams of 59% hydrogen peroxide were introduced into the vaporizer. 2. The hydrogen peroxide was vaporized and introduced into the sterilization chamber over a period of 5 minutes. 3. The pressure was reduced to 4 torr for 5 minutes to revaporize the hydrogen peroxide. 4. The sterilization chamber was vented to 1 atmosphere pressure for 0.5 minutes to condense the vapor again. 5. The pressure in the sterilization chamber was reduced to 4 torr and maintained at a constant pressure of 4 torr for 14.5 minutes. The total cycle lasted 25 minutes.

[6] = test system: Bacillus stearothermophilus spores; conditions: 3 g of 59% hydrogen peroxide, 5 Minutes Vaporization
Source text: The Petri dish contained a biological challenge consisting of 2.2×10^6 Bacillus stearothermophilus spores on a stainless steel coupon. A coupon was also placed in the center of each of the three lumens. The coupon in the Petri dish was used as a test of the effectiveness of the method at sterilizing the exterior of a device, and the coupons in the lumens were a test of the effectiveness of sterilizing the interior of the lumens. In Example 2, the test of Example 1 with 3 g of 59% hydrogen peroxide was repeated with the addition of 20 minutes exposure time to the hydrogen peroxide vapor.

[7] = Reducing and controlling at 1 torr
[8] = Reducing and controlling at 2 torr
[9] = Reducing and controlling at 3 torr
[10] = Reducing and controlling at 4 torr
[11] = Reducing and controlling at 5 torr
[12] = Reducing and controlling at 6 torr
[13] = Reducing and controlling at 7 torr
[14] = Without pump-down, final pressure about 9.5 torr
[15] = 0.5 Minutes Vent Plus 19.5 Minutes Reducing and Controlling at 4 Torr
[16] = 0.5 Minutes Vent Plus 19.5 Minutes at 1 Atm.
[17] = Valve closed at 1 torr, final pressure about 1.7 torr
[18] = Valve closed at 2 torr, final pressure about 2.8 torr
[19] = 3 grams of 59% hydrogen peroxide, Cycle with Two-Vaporization Process: 5 minutes vaporization, 4 torr 5 minutes, vent 1 atmosphere 0.5 minutes, 4 torr 14.5 minutes
[20] = control: 5 Minutes Vaporization plus 20 Minutes Diffusion at 1 atm.

OO [hydrogen peroxide]
Sterility Results In 2.48 mm × 50 cm Teflon lumen ([1]; 1 g 59% hydrogen peroxide): − | Sterility Results In 2.48 mm × 75 cm Teflon lumen ([1]; 1 g 59% hydrogen peroxide): + | Sterility Results In 2.48 × 100 cm Teflon lumen ([1]; 1 g 59% hydrogen peroxide): + | Sterility Results In Open Petri Dish ([1]; 1 g 59% hydrogen peroxide): − | Sterility Results In 2.48 mm × 50 cm Teflon lumen ([1]; 2 g 59% hydrogen peroxide): − | Sterility Results In 2.48 mm × 75 cm Teflon lumen ([1]; 2 g 59% hydrogen peroxide): + | Sterility Results In 2.48 × 100 cm Teflon lumen ([1]; 2 g 59% hydrogen peroxide): + | Sterility Results In Open Petri Dish ([1]; 2 g 59% hydrogen peroxide): − | Sterility Results In 2.48 mm × 50 cm Teflon lumen ([1]; 3 g 59% hydrogen peroxide): − | Sterility Results In 2.48 mm × 75 cm Teflon lumen ([1]; 3 g 59% hydrogen peroxide): + | Sterility Results In 2.48 × 100 cm Teflon lumen ([1]; 3 g 59% hydrogen peroxide): + | Sterility Results In Open Petri Dish ([1]; 3 g 59% hydrogen peroxide): − | Sterility Results In 2.48 mm × 50 cm lumen [2, 7]: − | Sterility Results In 2.48 mm × 75 cm lumen [2, 7]: + | Sterility Results In 2.48 mm × 100 cm lumen [2, 7]: + | Sterility Results In Open Petri Dish [2, 7]: − | Sterility Results In 2.48 mm × 50 cm lumen [2, 8]: − | Sterility Results In 2.48 mm × 75 cm lumen [2, 8]: − | Sterility Results In 2.48 mm × 100 cm lumen [2, 8]: + | Sterility Results In Open Petri Dish [2, 8]: − | Sterility Results In 2.48 mm × 50 cm lumen [2, 9]: − | Sterility Results In 2.48 mm × 75 cm lumen [2, 9]: − | Sterility Results In 2.48 mm × 100 cm lumen [2, 9]: − | Sterility Results In Open Petri Dish [2, 9]: − | Sterility Results In 2.48 mm × 50 cm lumen [2, 10]: − | Sterility Results In 2.48 mm × 75 cm lumen [2, 10]: − | Sterility Results In 2.48 mm × 100 cm lumen [2, 10]: − | Sterility Results In Open Petri Dish [2, 10]: − | Sterility Results In 2.48 mm × 50 cm lumen [2, 11]: − | Sterility Results In 2.48 mm × 75 cm lumen [2, 11]: − | Sterility Results In 2.48 mm × 100 cm lumen [2, 11]: − | Sterility Results In Open Petri Dish [2, 11]: − | Sterility Results In 2.48 mm × 50 cm lumen [2, 12]: − | Sterility Results In 2.48 mm × 75 cm lumen [2, 12]: − | Sterility Results In 2.48 mm × 100 cm lumen [2, 12]: − | Sterility Results In Open Petri Dish [2, 12]: − | Sterility Results In 2.48 mm × 50 cm lumen [2, 13]: − | Sterility Results In 2.48 mm × 75 cm lumen [2, 13]: − | Sterility Results In 2.48 mm × 100 cm lumen [2, 13]: + | Sterility Results In Open Petri Dish [2, 13]: − | Sterility Results In 2.48 mm × 50 cm lumen [2, 14]: − | Sterility Results In 2.48 mm × 75 cm lumen [2, 14]: + | Sterility Results In 2.48 mm × 100 cm lumen [2, 14]: + | Sterility Results In Open Petri Dish [2, 14]: − | Sterility Results In 2.48 mm × 50 cm lumen [3, 15]: − | Sterility Results In 2.48 × 75 cm Lumen [3, 15]: − | Sterility Results In 2.48 × 100 cm lumen [3, 15]: − | Sterility Results In Open Petri Dish [3, 15]: − | Sterility Results In 2.48 mm × 50 cm lumen [3, 16]: − | Sterility Results In 2.48 × 75 cm Lumen [3, 16]: + | Sterility Results In 2.48 × 100 cm lumen [3, 16]: + | Sterility Results In Open Petri Dish [3, 16]: − | Sterility Results In 2.48 mm × 50 cm lumen [4, 17]: − | Sterility Results In 2.48 mm × 75 cm lumen [4, 17]: − | Sterility Results In 2.48 mm × 100 cm lumen [4, 17]: + | Sterility Results In Open Petri Dish [4, 17]: − | Sterility Results In 2.48 mm × 50 cm lumen [4, 18]: − | Sterility Results In 2.48 mm × 75 cm lumen [4, 18]: − | Sterility Results In 2.48 mm × 100 cm lumen [4, 18]: − | Sterility Results In Open Petri Dish [4, 18]: − | Sterility Results In 2.48 mm × 50 cm lumen [5, 19]: − | Sterility Results In 2.48 mm × 75 cm lumen [5, 19]: − | Sterility Results In 2.48 mm × 100 cm lumen [5, 19]: − | Sterility Results In Open Petri Dish [5, 19]: − | Sterility Results In 2.48 mm × 50 cm lumen [5, 20]: − | Sterility Results In 2.48 mm × 75 cm lumen [5, 20]: + | Sterility Results In 2.48 mm × 100 cm lumen [5, 20]: + | Sterility Results In Open Petri Dish [5, 20]: − | Sterility Results In 2.48 mm × 50 cm lumen ([6]; Diffusion Time 0 Minute): − | Sterility Results In 2.48 mm × 75 cm lumen ([6]; Diffusion Time 0 Minute): + | Sterility Results In 2.48 × 100 cm lumen ([6]; Diffusion Time 0 Minute): + | Sterility Results In Open Petri Dish ([6]; Diffusion Time 0 Minute): − | Sterility Results In 2.48 mm × 50 cm lumen ([6]; Diffusion Time 20 Minutes): − | Sterility Results In 2.48 mm × 75 cm lumen ([6]; Diffusion Time 20 Minutes): + | Sterility Results In 2.48 × 100 cm lumen ([6]; Diffusion Time 20 Minutes): + | Sterility Results In Open Petri Dish ([6]; Diffusion Time 20 Minutes): −
